One may read the IC50 as the concentration that inhibits the measured activity by half.

Structures are written as SMILES. A value given as a limit tells only on which side of the number the result lay.

The first test has as its target T1, Axl (Homo sapiens, UniProt P30530).
T1 construct: endogenous in cells; host or cells: HeLa cells
T1 sequence (P30530 26-894): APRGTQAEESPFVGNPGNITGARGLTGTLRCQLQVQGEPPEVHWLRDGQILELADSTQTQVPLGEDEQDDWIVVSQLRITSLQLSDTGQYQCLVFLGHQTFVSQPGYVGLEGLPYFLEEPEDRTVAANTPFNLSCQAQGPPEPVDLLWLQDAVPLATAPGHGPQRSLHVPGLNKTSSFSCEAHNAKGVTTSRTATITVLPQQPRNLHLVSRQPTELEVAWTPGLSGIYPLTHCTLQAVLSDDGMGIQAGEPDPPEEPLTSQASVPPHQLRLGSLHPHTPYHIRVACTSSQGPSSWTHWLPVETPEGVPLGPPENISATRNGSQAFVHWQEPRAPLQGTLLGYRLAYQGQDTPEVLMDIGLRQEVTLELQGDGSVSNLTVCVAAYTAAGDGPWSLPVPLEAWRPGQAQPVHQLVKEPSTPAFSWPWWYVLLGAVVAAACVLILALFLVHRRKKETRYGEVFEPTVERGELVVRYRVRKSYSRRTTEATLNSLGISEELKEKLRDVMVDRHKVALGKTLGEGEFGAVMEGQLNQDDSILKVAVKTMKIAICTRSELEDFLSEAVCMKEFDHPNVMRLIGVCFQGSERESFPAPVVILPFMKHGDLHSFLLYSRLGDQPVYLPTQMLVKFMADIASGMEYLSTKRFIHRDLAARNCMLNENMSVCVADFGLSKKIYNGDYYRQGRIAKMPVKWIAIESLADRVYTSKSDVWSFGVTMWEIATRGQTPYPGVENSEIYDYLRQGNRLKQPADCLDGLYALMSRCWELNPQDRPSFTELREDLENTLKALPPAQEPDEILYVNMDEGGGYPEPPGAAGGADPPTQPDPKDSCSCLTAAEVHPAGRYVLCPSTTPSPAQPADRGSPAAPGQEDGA
As to the kind of experiment: Phospho-Akt In-Cell Western Assay (inhibition of Axl activity after Axl-antibody cross-linking). The test is classed as cell-based. The following applies: Hela cells, phospho-Akt chemiluminescence normalized to relative cell number; compounds of formula (Ia), Table 1; read-out: IC50. The essentials:
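Phospho-Akt was detected in formaldehyde-fixed cells by in-cell immunostaining with HRP chemiluminescence. Before fixation, HeLa cells kept 24 h in low-serum medium containing 500 ng/mL Axl/Fc received compound for 1 h at 37 °C, followed by 5-min Axl activation through antibody clustering.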
Take `Nc1nc(Nc2ccc(N3CC[C@@H](CN4CCCC4)C3)c(F)c2)nn1-c1cc2c(nn1)-c1ccccc1CCC2` [Compound 115, 1-(6,7-dihydro-5H-benzo[6,7]cyclohepta[1,2-c]pyridazin-3-yl)-N^3-(3-fluoro-4-((S)-3-(pyrrolidin-1-ylmethyl)pyrrolidinyl)phenyl)-1H-1,2,4-triazole-3,5-diamine]: the IC50 was 1000 to 10000 nM.

`Nc1nc(Nc2ccc(OCCN3CCCC3)cc2)nn1-c1ncnc2c1CCCc1ccccc1-2` [Compound 37, 1-(6,7-dihydro-5H-benzo[6,7]cyclohepta[1,2-d]pyrimidin-4-yl)-N^3-(4-(2-(pyrrolidin-1-yl)ethoxy)phenyl)-1H-1,2,4-triazole-3,5-diamine]: the IC50 is less than 1000 nM. In the case of `CC(C)(C)OC(=O)NC1CCN(c2ccc(Nc3nc(N)n(-c4cc5c(nn4)-c4ccccc4CCC5)n3)cc2F)CC1` [Compound 86, 1-(6,7-dihydro-5H-benzo[6,7]cyclohepta[1,2-c]pyridazin-3-yl)-N^3-(3-fluoro-4-(4-(tert-butyloxycarbonylamino)-piperidin-1-yl)phenyl)-1H-1,2,4-triazole-3,5-diamine], the 50% inhibitory concentration (IC50) fell in the range of 1000 to 10000 nM. For `CN1CCC2CN(c3ccc(Nc4nc(N)n(-c5cc6c(nn5)-c5ccccc5CCC6)n4)cc3F)CC21` (stereo not shown) [Compound 81, 1-(6,7-dihydro-5H-benzo[6,7]cyclohepta[1,2-c]pyridazin-3-yl)-N^3-(3-fluoro-4-(1-methyl-octahydropyrrolo[3,4-b]pyrrol-5-yl)phenyl)-1H-1,2,4-triazole-3,5-diamine], the IC50 is less than 1000 nM. Consider `Nc1nc(Nc2ccc(N3CCC(N4CCCC4)CC3)c(F)c2)nn1-c1cc2c(nn1)-c1ccccc1CCC2` [Compound 4], for which the IC50 is less than 1000 nM. Take `Nc1nc(Nc2ccc(N3CCCC(N4CCCC4)CC3)c(F)c2)nn1-c1cc2c(nn1)-c1ccccc1CCC2` (stereo not shown) [Compound 77, 1-(6,7-dihydro-5H-benzo[6,7]cyclohepta[1,2-c]pyridazin-3-yl)-N^3-(3-fluoro-4-(4-pyrrolidin-1-yl-azepan-1-yl)phenyl)-1H-1,2,4-triazole-3,5-diamine]: the IC50 was less than 1000 nM. The same measure, in the same setting: the result for `CN(CCOc1ccc(Nc2nc(N)n(-c3cc4c(nn3)-c3ccccc3CCC4)n2)cc1)C1CCCC1` [Compound 60, 1-(6,7-dihydro-5H-benzo[6,7]cyclohepta[1,2-c]pyridazin-3-yl)-N^3-(4-(2-(N-methylcyclopentylamino)-ethoxy)phenyl)-1H-1,2,4-triazole-3,5-diamine] reads less than 1000 nM; that for `CN(C)C1CCN(c2ccc(Nc3nc(N)n(-c4cc5c(nn4)-c4ccccc4CCC5)n3)cc2F)CC1` [Compound 61, 1-(6,7-dihydro-5H-benzo[6,7]cyclohepta[1,2-c]pyridazin-3-yl)-N^3-(3-fluoro-4-(4-dimethylaminopiperidin-1-yl)phenyl)-1H-1,2,4-triazole-3,5-diamine], less than 1000 nM; that for `CN1CCc2cc(-n3nc(Nc4ccc(N5CCN(C6CCCCC6)CC5)c(F)c4)nc3N)nnc2-c2ccccc21` [Compound 43, 1-(7-methyl-6,7-dihydro-5H-benzo[2,3]azepino[4,5-c]pyridazin-3-yl)-N^3-(3-fluoro-4-(4-cyclohexylpiperazinyl)phenyl)-1H-1,2,4-triazole-3,5-diamine], 1000 to 10000 nM. Consider `Nc1nc(Nc2ccc(N3Cc4ccccc4C3)c(F)c2)nn1-c1cc2c(nn1)-c1ccccc1SCC2` [Compound 123, 1-(6,7-dihydro-5H-benzo[2,3]thiepino[4,5-c]pyridazin-3-yl)-N^3-(3-fluoro-4-(isoindolin-2-yl)phenyl)-1H-1,2,4-triazole-3,5-diamine], for which the IC50 was more than 20000 nM.

The same test, now with this note: Hela cells, phospho-Akt chemiluminescence normalized to relative cell number; compounds of formula (Ib), Table 2; read-out: IC50.
Consider `Nc1nc(Nc2ccc(CN3CCC(N4CCCC4)CC3)cc2)n(-c2cc3c(nn2)-c2ccccc2CCC3)n1` [Compound 165, 1-(6,7-dihydro-5H-benzo[6,7]cyclohepta[1,2-c]pyridazin-3-yl)-N^5-(4-((4-pyrrolidin-1-ylpiperidinyl)methyl)phenyl)-1H-1,2,4-triazole-3,5-diamine], for which the IC50 was less than 1000 nM. Same read-out and setting: next, `Nc1nc(Nc2ccc(N3CC(N4CCCC4)C3)c(F)c2)n(-c2cc3c(nn2)-c2ccccc2CCC3)n1` [Compound 170, 1-(6,7-dihydro-5H-benzo[6,7]cyclohepta[1,2-c]pyridazin-3-yl)-N^5-(3-fluoro-4-(3-pyrrolidin-1-ylazetidinyl)phenyl)-1H-1,2,4-triazole-3,5-diamine]: 1000 to 10000 nM; `Nc1nc(Nc2ccc(N3CCC(N4CCOCC4)CC3)c(F)c2)n(-c2cc3c(nn2)-c2ccccc2CCC3)n1` [Compound 158, 1-(6,7-dihydro-5H-benzo[6,7]cyclohepta[1,2-c]pyridazin-3-yl)-N^5-(3-fluoro-4-(4-(morpholin-4-yl)piperidin-1-yl)phenyl)-1H-1,2,4-triazole-3,5-diamine]: more than 20000 nM; `CN1CCC(N2CCN(c3ccc(Nc4nc(N)nn4-c4cc5c(nn4)-c4ccccc4CCC5)cc3F)CC2)CC1` [Compound 168, 1-(6,7-dihydro-5H-benzo[6,7]cyclohepta[1,2-c]pyridazin-3-yl)-N^5-(3-fluoro-4-(4-N-methylpiperid-4-ylpiperazinyl)phenyl)-1H-1,2,4-triazole-3,5-diamine]: 1000 to 10000 nM.

The test is the same for the next values; noted with them: inhibition of Axl activity; Table 1, compounds of formula (Ia); read-out: IC50.
`CN(C)C1CCN(CC=Cc2ccc(Nc3nc(N)n(-c4cc5c(nn4)-c4ccccc4CCC5)n3)cc2)C1` (stereo not shown) [Compound 200, 1-(6,7-dihydro-5H-benzo[6,7]cyclohepta[1,2-c]pyridazin-3-yl)-N^3-(4-(3-dimethylaminopyrrolidin-1-ylprop-1-enyl)phenyl)-1H-1,2,4-triazole-3,5-diamine]: the IC50 was less than 1000 nM.

Take `CN1CC2CN(C3CCN(c4ccc(Nc5nc(N)n(-c6cc7c(nn6)-c6ccccc6CCC7)n5)cc4F)CC3)CC2C1` (stereo not shown) [Compound 134, 1-(6,7-dihydro-5H-benzo[6,7]cyclohepta[1,2-c]pyridazin-3-yl)-N^3-(3-fluoro-4-(4-(5-methyloctahydropyrrolo[3,4-c]pyrrolyl)piperidin-1-yl)phenyl)-1H-1,2,4-triazole-3,5-diamine]: the IC50 is less than 1000 nM. Consider `Nc1nc(Nc2ccc3c(c2)CCC(N2CCC[C@H]2C(=O)O)CC3)nn1-c1cc2c(nn1)-c1ccccc1CCC2` (stereo partly drawn) [Compound 195, 1-(6,7-dihydro-5H-benzo[6,7]cyclohepta[1,2-c]pyridazin-3-yl)-N^3-((7-(2-(S)-carboxy)pyrrolidin-1-yl)-6,7,8,9-tetrahydro-5H-benzo[7]annulene-2-yl)-1H-1,2,4-triazole-3,5-diamine], for which the IC50 fell in the range of 1000 to 10000 nM. With `Nc1nc(Nc2ccc3c(c2)CCC(O)CC3)nn1-c1cc2c(nn1)-c1ccccc1CCC2` (stereo not shown) [Compound 226, 1-(6,7-dihydro-5H-benzo[6,7]cyclohepta[1,2-c]pyridazin-3-yl)-N^3-(7-hydroxy-6,7,8,9-tetrahydro-5H-benzo[7]annulene-2-yl)-1H-1,2,4-triazole-3,5-diamine], the IC50 is less than 1000 nM. `Nc1nc(Nc2ccc(C3CCN(C4CC5CCC4C5)CC3)cc2)nn1-c1cc2c(nn1)-c1ccccc1CCC2` (stereo not shown) [Compound 211, 1-(6,7-dihydro-5H-benzo[6,7]cyclohepta[1,2-c]pyridazin-3-yl)-N^3-(4-(1-bicyclo[2.2.1]heptan-2-yl)-piperidin-4-ylphenyl)-1H-1,2,4-triazole-3,5-diamine]: the IC50 was more than 20000 nM. For `Nc1nc(Nc2ccc3c(c2)CNCC3)nn1-c1cc2c(nn1)-c1ccccc1CCC2` [Compound 213, 1-(6,7-dihydro-5H-benzo[6,7]cyclohepta[1,2-c]pyridazin-3-yl)-N^3-(1,2,3,4-tetrahydroisoquinolin-7-yl)-1H-1,2,4-triazole-3,5-diamine], the IC50 is less than 1000 nM.

Consider `Nc1nc(Nc2ccc3c(c2)CCC(NCC(=O)O)CC3)nn1-c1cc2c(nn1)-c1ccccc1CCC2` (stereo not shown) [Compound 237, 1-(6,7-dihydro-5H-benzo[6,7]cyclohepta[1,2-c]pyridazin-3-yl)-N^3-(7-(carboxymethyl)amino-6,7,8,9-tetrahydro-5H-benzo[7]annulene-2-yl)-1H-1,2,4-triazole-3,5-diamine], for which the IC50 is more than 20000 nM. With `Nc1nc(Nc2ccc(/C=C/CN3CCCCC3)nc2)nn1-c1cc2c(nn1)-c1ccccc1CCC2` [Compound 138, 1-(6,7-dihydro-5H-benzo[6,7]cyclohepta[1,2-c]pyridazin-3-yl)-N^3-(6-(3-piperidin-1-yl-(E)-propenyl)pyridin-3-yl)-1H-1,2,4-triazole-3,5-diamine], the IC50 is less than 1000 nM.

The values above are taken from patent publication US7709482B2, “Polycyclic heteroaryl substituted triazoles useful as Axl inhibitors” (Rigel Pharmaceuticals, Inc., priority 2006, dated 2010).
